Experimental data from ChEMBL document CHEMBL1157435, “Synthesis of 3',4'-epoxynoraristeromycin analogs for molecular labeling probe of S-adenosyl-l-homocysteine hydrolase” (Bioorg Med Chem, 2008).
pKi: −log10 of the molar value. Calls of active or inactive are those of the source. The calls are words filed in the database; no cut-off is given here.

How the values were obtained:
Adenosylhomocysteinase = Adenosylhomocysteinase (Homo sapiens, UniProt P23526); experiment: Inhibition of human SAHH
[1] = (§1) Inhibition of Plasmodium falciparum SAHH
Plasmodium falciparum = experiment: as §1

pKi (Adenosylhomocysteinase)	Kinact (Adenosylhomocysteinase) [min⁻¹]	Kinact (Plasmodium falciparum) [min⁻¹]	Activity (Plasmodium falciparum)	Compound	pKi [1]
4.69	0.133	0.099		Nc1nc(F)nc2c1ncn2[C@@H]1C[C@H]2O[C@H]2[C@H]1O	4.84
	0.09			Nc1ncnc2c1ncn2C[C@H](O)[C@H](O)C=O	
4.91	0.552		inactive	Nc1ncnc2c1ncn2[C@@H]1C[C@H]2O[C@H]2[C@H]1O	
